Activity calls are given as the source filed them. No cut-off for these calls is given here.
Key:
[1] = tested on: EJ; test: Induction of apoptosis in human EJ cells assessed as decrease in procaspase-9 level at 5 uM after 24 hrs by Western blot analysis; format: functional, cell-based
[2] = tested on: EJ; test: Induction of apoptosis in human EJ cells assessed as increase in cytosolic cytochrome c level at 5 uM after 24 hrs by Western blot analysis; format: functional, cell-based
[3] = tested on: EJ; test: Induction of apoptosis in human EJ cells assessed as viable cells at 5 uM after 24 hrs by annexin V-FITC/propidium iodide staining-based flow cytometric analysis (reference value: 99.6%); format: functional; conditions: read-out: Activity
[4] = tested on: EJ; test: Induction of apoptosis in human EJ cells assessed as early apoptotic cells at 5 uM after 24 hrs by annexin V-FITC/propidium iodide staining-based flow cytometric analysis (reference value: 0.01 to 0.04%); format: functional
[5] = tested on: EJ; test: Induction of apoptosis in human EJ cells assessed as late apoptotic cells at 5 uM after 24 hrs by annexin V-FITC/propidium iodide staining-based flow cytometric analysis (reference value: 0.08 to 0.22%); format: functional
[6] = tested on: EJ; test: Induction of apoptosis in human EJ cells assessed as necrotic cells at 5 uM after 24 hrs by annexin V-FITC/propidium iodide staining-based flow cytometric analysis (reference value: 0.28 to 0.30%); format: functional
[7] = tested on: EJ; test: Induction of apoptosis in human EJ cells assessed as nuclear condensation at 5 uM after 24 hrs by Hoechst 33342 staining-based confocal microscopic analysis; format: functional, cell-based
[8] = tested on: EJ; test: Induction of apoptosis in human EJ cells assessed as formation of apoptotic bodies at 5 uM after 24 hrs by Hoechst 33342 staining-based confocal microscopic analysis; format: functional, cell-based
[9] = tested on: EJ; test: Induction of necrosis in human EJ cells assessed as disruption of membrane integrity at 15 uM after 1 hr by propidium iodide uptake assay; format: functional, cell-based
[10] = tested on: Jurkat; test: Cytotoxicity against human Jurkat cells assessed as growth inhibition after 72 hrs by MTT assay; format: functional, cell-based
[11] = tested on: HeLa; test: Cytotoxicity against human HeLa cells assessed as growth inhibition after 72 hrs by MTT assay; format: functional, cell-based
[12] = tested on: EJ; test: Cytotoxicity against human EJ cells assessed as growth inhibition after 72 hrs by MTT assay; format: functional, cell-based
[13] = tested on: 5637; test: Cytotoxicity against human 5637 cells assessed as growth inhibition after 72 hrs by MTT assay; format: functional, cell-based; conditions: Homo sapiens, 5637, 72 h
[14] = tested on: PC-3; test: Cytotoxicity against human PC3 cells assessed as growth inhibition after 72 hrs by MTT assay; format: functional, cell-based; conditions: PC-3, 72 h
[15] = tested on: EJ; test: Induction of apoptosis in human EJ cells assessed as decrease in procaspase-3 level at 5 uM after 24 hrs by Western blot analysis; format: functional, cell-based
[16] = tested on: EJ; test: Induction of apoptosis in human EJ cells assessed as caspase-8 activation at 5 uM after 24 hrs by Western blot analysis; format: functional, cell-based
[17] = tested on: EJ; test: Induction of apoptosis in human EJ cells assessed as disruption of mitochondria with frequent fusion between great number of vaculoes at 5 uM after 24 hrs by transmission electron microscopic analysis; format: functional, cell-based
[18] = tested on: EJ; test: Induction of apoptosis in human EJ cells assessed as nuclear fragmentation at 5 uM after 24 hrs by transmission electron microscopic analysis; format: functional, cell-based
[19] = tested on: EJ; test: Induction of apoptosis in human EJ cells assessed as peripheral nuclear chromatin condensation at 5 uM after 24 hrs by transmission electron microscopic analysis; format: functional, cell-based
[20] = tested on: EJ; test: Induction of apoptosis in human EJ cells assessed as cristae swelling at 5 uM after 24 hrs by transmission electron microscopic analysis; format: functional, cell-based
[21] = tested on: EJ; test: Induction of apoptosis in human EJ cells assessed as mitochondrial matrix condensation at 5 uM after 24 hrs by transmission electron microscopic analysis; format: functional, cell-based
[22] = tested on: EJ; test: Induction of necrosis in human EJ cells assessed as disruption of membrane integrity measuring loss of microvilli at 15 uM after 1 hr by scanning electron microscopic analysis; format: functional, cell-based
[23] = tested on: EJ; test: Induction of necrosis in human EJ cells assessed as disruption of membrane integrity measuring pore formation at 15 uM after 1 hr by scanning electron microscopic analysis; format: functional, cell-based
[24] = Hemolytic activity in mouse RBC at 100 uM after 1 hr by ELISA relative to control; format: ADME, cell-based, Erythrocyte; conditions: for hemolysis at 1 h, 100 µM: mouse red blood cells, read-out: Activity; for Activity: erythrocyte, 1 h, 100 µM
[25] = tested on: EJ; test: Cytotoxicity against human EJ cells assessed as cell death at 10 to 20 uM after 1 hr by MTT assay; format: functional, cell-based
[26] = tested on: EJ; test: Cytotoxicity against human EJ cells assessed as cell death up to 20 uM measured within 1 hr by MTT assay; format: functional, cell-based
[27] = tested on: EJ; test: Cytotoxicity against human EJ cells assessed as cell death at 5 to 20 uM after 24 hrs by MTT assay; format: functional, cell-based

Compound | Activity [1] | Activity [2] | viability at 5 µM [3] | Activity [4] | Activity [5] | Activity [6] | Activity [7] | Activity [8] | Activity [9] | IC50 [10] | IC50 [11] | IC50 [12] | IC50 [13] | IC50 [14] | Activity [15] | Activity [16] | also measured
CC(C)c1ccc2c(c1)CC[C@H]1[C@](C)(CNC(=S)N[C@@H]3CCCC[C@H]3N3CCCC3)CCC[C@]21C | Active | Active | 0.64% | 94.6% | 4.73% | 0.01% | Active | Active | Active | 3.39 µM | 4.47 µM | 3.44 µM | 3.59 µM | 4.7 µM | – | – | –
CC(C)c1ccc2c(c1)CC[C@H]1[C@](C)(CNC(=S)N[C@H]3CCCC[C@@H]3N3CCCC3)CCC[C@]21C | Active | Active | 0.35% | 95.1% | 4.53% | 0% | Active | Active | Active | 4.5 µM | 5.76 µM | 4.29 µM | 5.18 µM | 6.57 µM | – | – | –
CC(C)c1ccc2c(c1)CC[C@H]1[C@](C)(CNC(=S)N[C@H]3CCCC[C@@H]3N(C)C)CCC[C@]21C | Active | Active | 0.32% | 92.2% | 7.45% | 0% | Active | Active | Active | 4.32 µM | 5.12 µM | 4.19 µM | 4.62 µM | 5.53 µM | – | – | –
CC(C)c1ccc2c(c1)CC[C@H]1[C@](C)(C(=O)O)CCC[C@]21C [DEHYDROABIETIC ACID] | – | – | – | – | – | – | – | – | – | 25.5 µM | 28.4 µM | 25.1 µM | 27.6 µM | 28.1 µM | – | – | –
CC(C)c1ccc2c(c1)CC[C@H]1[C@](C)(CNC(=S)N[C@H]3CCCC[C@@H]3N)CCC[C@]21C | Active | Active | 8.8% | 81.9% | 9.06% | 0.25% | Active | Active | Active | 3.48 µM | 3.73 µM | 3.05 µM | 3.14 µM | 3.52 µM | inactive | inactive | Activity [17]: Active; Activity [18]: Active; Activity [19]: Active; Activity [20]: Active; Activity [21]: Active; Activity [22]: Active; Activity [23]: Active; hemolysis at 1 h, 100 µM [24]: 74.4%; Activity [25]: Active
CC(C)c1ccc2c(c1)CC[C@H]1[C@](C)(CN)CCC[C@]21C | Active | Active | 6.16% | 87.9% | 5.85% | 0.13% | Active | Active | Active | 4.85 µM | 7.68 µM | 4.82 µM | 8.7 µM | 7.88 µM | inactive | inactive | hemolysis at 1 h, 100 µM [24]: 17.9%; Activity [25]: Active
C=C[C@H]1CN2CC[C@H]1C[C@H]2[C@H](O)c1ccnc2ccc(OC)cc12 [QUININE] | – | – | – | – | – | – | – | – | – | > 50 µM | > 50 µM | > 50 µM | > 50 µM | > 50 µM | – | – | Activity [26]: inactive
C=C[C@H]1C[N@@]2CC[C@H]1C[C@H]2[C@H](O)c1ccnc2ccc(OC)cc12 [QUININE] | – | – | – | – | – | – | – | – | – | – | – | – | – | – | – | – | Activity [24]: Non-toxic
C=CC1CN2CCC1CC2[C@H](NC(=S)NC[C@]1(C)CCC[C@]2(C)c3ccc(C(C)C)cc3CC[C@@H]12)c1ccnc2ccc(OC)cc12 (stereo partly drawn) | Active | Active | 6.83% | 89% | 4.01% | 0.12% | Active | Active | inactive | 2.2 µM | 3.21 µM | 2.07 µM | 2.64 µM | 2.98 µM | inactive | inactive | Activity [17]: Active; Activity [18]: Active; Activity [19]: Active; Activity [20]: Active; Activity [21]: Active; Activity [22]: inactive; Activity [23]: inactive; Activity [27]: Active; Activity [24]: Non-toxic; Activity [26]: inactive
